Data on one compound can be found in patent EP4442684A1, “A CLASS OF PYRIMIDINE COMPOUNDS, AND PREPARATION METHOD THEREFOR AND USE THEREOF” (Shanghai Allist Pharmaceuticals Co., Ltd., priority 2021, dated 2023).

This assay has as its system PC-9-EGFR-Del19-T790M-C797S cells. Briefly: proliferation inhibition on PC-9-EGFR-Del19-T790M-C797S cells, sulforhodamine B method (SRB method). Type of assay: cell-based. The following applies: Homo sapiens, in vitro proliferation inhibition, 72 hours culture, final concentrations 2500 to 0.01nM. The method, then: The in vitro proliferation inhibition activity of the compound on PC-9-EGFR-Del19-T790M-C797Slcells where Del19/T790M/C797S triple mutation exists in exogenously stably overexpressed EGFR protein of human non-small cell lung cancer PC-9 was determined by sulforhodamine B method (SRB method).
Cell source: PC-9-EGFR-Del19-T790M-C797S cells were purchased from Nanjing Cobioer Biosciences Co., Ltd.
PC-9-EGFR-Del19-T790M-C797S cells were cultured in an RPMI1640 complete medium containing puromycin (2µg/ml) and 10% fetal bovine serum. PC-9-EGFR-Del19-T790M-C797S cells in a logarithmic growth phase were taken, seeded in a 96-well plate at a cell density of 5000 cells/135µL complete culture medium/well, placed in a thermostatic incubator containing 5% CO2 at 37°C and cultured for 24 hours to ensure complete anchorage of cells. Each compound was dissolved in dimethyl sulfoxide (DMSO) in advance to prepare a 10mM stock solution, and then the compound was successively diluted with DMSO and the complete culture medium. […]
GraphPad Prism 8.3 software was used for data analysis, and non-linear S-curve regression was used for fitting the data to obtain a dose-effect curve, from which an IC50 value was calculated, and the results are shown in Table 1.

Take `C=CC(=O)Nc1cc(Nc2nccc(-c3cn(C)c4ccccc34)n2)c(OCC(F)(F)F)nc1N(C)CC[N+](C)(C)[O-]` [Compound V]: the IC50 came out at 564 nM.
